pIC50: −log10 of the molar value. Values belong to the compound of their own block, whether it stands above or below them.
Experiments:
[1] = test system: Human Lung Carcinoma A549; assay: Cell Titer-Glo Luminescent Cell Viability assay, antiproliferative activity, A549; type: cell-based; details: A549 cell line, 72 hours culture with test article, highest concentration 0.4 μM
Experimental: (§1) The antiproliferative activity was studied against human tumor cell lines, Human Lung Carcinoma A549 and Human Mammary Gland Adenocarcinoma MCF-7 with Promega's Cell Tier-Glo® Luminescent Cell Viability assay.
(§2) A preliminary cell titration was conducted to select the proper seeding density for the growth of these lines for the relevant time frames.
(§3) The tumor cells were seeded in a volume of 90 μL/well of growth medium into a white polystyrene 96-well microculture plate (Corning® Costar® 96-well flat bottom plate, Cat #3917). After 24 hours of incubation in a humidified incubator at 37° C., in an atmosphere of 5% CO2 and 95% air, 10 μL of 10 serially diluted test agent in growth medium were added to each well in duplicate (10 points dose response, highest concentration 0.4 μM, with a 1:2 dilution plus untreated control). After 72 hours of culture with test article, in a humidified incubator at the atmosphere of 5% CO2 and 95% air, the plate cells and Cell Titer-Glo® (Promega G7571) reagents were brought to room temperature to equilibrate for 30 minutes. 100 μL of Cell Titer-Glo® (Promega G7571) reagent was added to each well. The plates were shaken for two minutes and then left to equilibrate for ten minutes prior to reading luminescence on the Biotech Synergy II microplate reader. The IC50 results are listed in the following tables and are shown in graphs in FIG. 5 and FIG. 6.

[2] = test system: Human Mammary Gland Adenocarcinoma MCF-7; assay: Cell Titer-Glo Luminescent Cell Viability assay, antiproliferative activity, MCF-7; type: cell-based; details: MCF7, MCF-7 cell line, 72 hours culture with test article, highest concentration 0.4 μM
Experimental: as §1, §2, §3

[3] = Encapsulation of purpurin dye in nanogel, aqueous dispersion; type: physicochemical; details: 2 mg purpurin, 6 mg PEG diacrylate (MW 1000) β-cyclodextrin crosslinked nanogel, 3 ml di water, stirring overnight
Experimental: 6 mg of PEG diacrylate (MW 1000) β-cyclodextrin crosslinked nanogel was dispersed in 3 ml of di water, 2 mg of purpurin solid was added to the solution. The resulted mixture was stirring overnight.

[4] = native cyclodextrin; cited from earlier work

pIC50 [1]: 8.22
pIC50 [2]: 8.97
Structure (SMILES): CC(=O)O[C@H]1C(=O)[C@@]2(C)[C@H]([C@H](OC(=O)c3ccccc3)[C@]3(O)C[C@H](OC(=O)[C@H](O)[C@@H](NC(=O)c4ccccc4)c4ccccc4)C(C)=C1C3(C)C)[C@]1(OC(C)=O)CO[C@@H]1C[C@@H]2O [Paclitaxel Control, paclitaxel]

Structure (SMILES): O=C1c2ccccc2C(=O)c2c(O)c(O)cc(O)c21 [purpurin]
Aqueous dispersion of purpurin with nanogel [3]: dispersed in the aqueous as a transparent colloidal solution

Structure (SMILES): OC[C@H]1O[C@@H]2O[C@H]3[C@H](O)[C@@H](O)[C@@H](O[C@H]4[C@H](O)[C@@H](O)[C@@H](O[C@H]5[C@H](O)[C@@H](O)[C@@H](O[C@H]6[C@H](O)[C@@H](O)[C@@H](O[C@H]7[C@H](O)[C@@H](O)[C@@H](O[C@H]1[C@H](O)[C@H]2O)O[C@@H]7CO)O[C@@H]6CO)O[C@@H]5CO)O[C@@H]4CO)O[C@@H]3CO [α-cyclodextrin]
solubility [4]: 129.5 g/kg

Reference: patent US12064517B1, “Polymer nanoparticle” (priority 2018, dated 2024)
